Results taken from paper PMC12026874, “Microstructure of Sea Cucumber Parastichopus tremulus Peptide Hydrogels and Bioactivity in Caco-2 Cell Culture Model” (Gels, 2025).
Entries after “also recorded” stand apart in the source; their conditions may differ. Where no end group is shown, it is not given here.

Assays:
[1] = Experimental solubility and minimum gelation conditions; type: physicochemical; conditions: for solubility in sodium phosphate buffer (NaPB): 75 mM sodium phosphate buffer pH 7.4 (also ORAC buffer), 1–15 mM; for peptide concentration at which gelation occurs in NaPB: 75 mM sodium phosphate buffer pH 7.4, room temperature, no DMSO
[2] = accompanying manufacturer information; ref ProteoGenix SAS; cited from earlier work
Method: The peptide synthesis was carried out using ProteoGenix SAS, (Schiltigheim France), followed by acetate N-terminal blocking and chromatography purification (LC-MS purity chromatograms per peptide are included in the Supplementary Materials). Thus, 1 g of lyophilized powder at 80% or a higher purity (technical grade) in sterile plastic bottles was provided by ProteoGenix for further research. The peptides were stored at −20 °C, opened only prior to the dissolution preparation and ...

[3] = biological target: T1, angiotensin-I converting enzyme (ACE I) (Oryctolagus cuniculus, UniProt P12822); test: ACE I inhibitory activity (cleavage of FA-PGG); type: biochemical; conditions: for IC50: linear regression over 7, 8.5 and 10 mg/mL, substrate FA-PGG, three independent replicates, read-out: ACE I inhibition IC50 (converted)
T1 construct: purchased Sigma Aldrich A6778
T1 sequence (P12822 34-1310): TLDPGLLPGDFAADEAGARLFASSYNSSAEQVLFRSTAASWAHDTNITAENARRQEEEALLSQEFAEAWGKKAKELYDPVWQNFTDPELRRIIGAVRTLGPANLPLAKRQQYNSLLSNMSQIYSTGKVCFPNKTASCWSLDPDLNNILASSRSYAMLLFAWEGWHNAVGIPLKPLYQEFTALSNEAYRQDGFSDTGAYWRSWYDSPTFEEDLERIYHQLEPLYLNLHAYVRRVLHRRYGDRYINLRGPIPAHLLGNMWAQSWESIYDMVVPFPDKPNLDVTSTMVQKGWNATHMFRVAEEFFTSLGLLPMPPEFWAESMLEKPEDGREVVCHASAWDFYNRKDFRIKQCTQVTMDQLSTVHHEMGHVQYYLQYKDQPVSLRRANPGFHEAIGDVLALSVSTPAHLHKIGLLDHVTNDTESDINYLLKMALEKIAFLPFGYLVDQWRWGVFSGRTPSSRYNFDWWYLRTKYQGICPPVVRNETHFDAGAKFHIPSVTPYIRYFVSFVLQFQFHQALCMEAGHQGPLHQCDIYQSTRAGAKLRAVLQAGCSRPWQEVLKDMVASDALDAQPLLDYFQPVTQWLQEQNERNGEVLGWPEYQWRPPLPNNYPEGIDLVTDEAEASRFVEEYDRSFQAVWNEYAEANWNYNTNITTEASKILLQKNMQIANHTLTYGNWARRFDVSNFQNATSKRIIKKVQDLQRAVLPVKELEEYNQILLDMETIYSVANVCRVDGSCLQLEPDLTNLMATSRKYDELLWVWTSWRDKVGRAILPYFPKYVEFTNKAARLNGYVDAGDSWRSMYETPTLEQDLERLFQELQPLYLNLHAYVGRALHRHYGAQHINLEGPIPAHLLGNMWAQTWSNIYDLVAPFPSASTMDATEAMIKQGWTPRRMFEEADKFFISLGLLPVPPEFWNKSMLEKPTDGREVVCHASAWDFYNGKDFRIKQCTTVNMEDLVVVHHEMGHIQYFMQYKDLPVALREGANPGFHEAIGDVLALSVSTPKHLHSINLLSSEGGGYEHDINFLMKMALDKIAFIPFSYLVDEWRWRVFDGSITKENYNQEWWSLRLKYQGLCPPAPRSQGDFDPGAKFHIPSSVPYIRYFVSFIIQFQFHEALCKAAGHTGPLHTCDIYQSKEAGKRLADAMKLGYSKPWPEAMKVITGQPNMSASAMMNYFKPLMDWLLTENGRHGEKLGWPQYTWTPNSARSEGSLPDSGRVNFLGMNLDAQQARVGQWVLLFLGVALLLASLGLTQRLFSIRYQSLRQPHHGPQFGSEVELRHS
Method: For the angiotensin-I converting enzyme (ACE I) inhibitory activity measurements, the peptides were dissolved as described for the ORAC assay. As the highest possible concentration of the peptides without gel formation was 10 mg/mL and no activity could be detected at 5 mg/mL, the peptides were assessed at 7, 8.5, and 10 mg/mL in three independent replicates. The substrate N-[3-(2-furyl) acryloyl]-L-phenylalanyl-glycylglycine (FA-PGG; Sigma Aldrich F7131) was prepared at 0.88 mM in 50 mM Tris-Cl, pH 7.5, and 0.3 M NaCl. In 96-well plates, 10 µL of the samples and their respective buffers as controls were combined with 10 µL of ACE I (ACE; Sigma Aldrich A6778) at 0.25 U/mL and 150 µL of a preheated substrate solution. The absorbance was continuously measured every minute at 340 nm for 30 min in a Synergy HTX S1LFA plate reader. Linear regression curves were obtained for the decrease in absorbance over time for every sample and the % ACE I inhibition was calculated as:% ACE I inhibition = (1 − (ΔA340 nm protein solution/ΔA340 nm negative control)) × 100
Captopril was used to verify the functionality of the assay, and a logarithmic inhibition curve was obtained using 340, 34, 17, and 8.5 µM captopril. IC 50 values were calculated for the peptides for which a positive linear regression line could be obtained based on their ACE inhibition (%) at the assessed concentrations.

| Substance | solubility in sodium phosphate buffer (NaPB) ([1]; room temperature, visual) | peptide concentration at which gelation occurs in NaPB [1] | water solubility [2] | IC50 [3] | individual peptide solubility ([1]; both buffers: Ca2+-containing artificial sea water pH 7.7 and 75 mM sodium phosphate buffer pH 7.4, 21 °C, visual, three repetitions) | inhibition at 10000 µg/mL ([3]; at 10 mg/mL, mean of three replicates) | solubility in Ca2+-containing buffer ([1]; 1 mM peptide, artificial sea water pH 7.7, no DMSO, room temperature, visual) | peptide concentration needed for gelation (minimal gelation conditions) ([1]; Ca2+-containing buffer (artificial sea water, 11 mM Ca2+, pH 7.7), room temperature 21 °C, mix at 1:1:1:1 ratio) |
| --- | --- | --- | --- | --- | --- | --- | --- | --- |
| Ac-EMLWLSDGSMGFAEDTDAAFLPGDTIFGRI [Peptide P1] | dissolved after gentle agitation without any need for DMSO addition | above 15 mM | poor |  |  |  |  |  |
| Ac-QNGEYGCVADTPNLLYAFKILDYRQ [Peptide P4] | dissolved after gentle agitation without any need for DMSO addition | above 15 mM | poor | 8.96 mM |  |  |  |  |
| Ac-RAGQPITAFLVRD [Peptide P2] | insoluble; also recorded: insolubility |  |  | 4.78 mM | low | 75% |  |  |
| Ac-SRPSDPASAVAGEDYTGISRN [Peptide P3] | dissolved after gentle agitation without any need for DMSO addition | above 15 mM |  |  |  |  | fully soluble | 15 mM |
